US6676973B1, “Method of treating ovarian cancers with cadmium” (priority 1995, dated 2004)

Experiments:
[1] = system: A2780 cells; assay: microculture tetrazolium (MTT) cytotoxicity assay, A2780; type: cell-based, human; conditions: for IC50: read-out: 50% cell kill (IC50)
Protocol: (§1) Human ovarian cancer A2780 and A2780/CP70 cells were cultured in monolayer using RPMI 1640 media supplemented with 10% fetal calf serum, 2 mM L-glutamine, 0.2 U insulin/ml, 100 U/ml penicillin, and 100 μg/ml streptomycin (GIBCO, Grands Island, N.Y.). Cells were grown in a humidified chamber containing a mixture of 5% CO2 and ambient air at 37° C. Sensitivity of A2780 and A2780/CP70 cells to Cd and to cisplatin was assessed by microculture tetrazolium (MTT) assay, as described by Alley et al. Briefly, cells were plated at 1000 cells/well in 96-well plates and drug exposure was made the following day. Cadmium dichloride was initially dissolved in double distilled water (Dh2O) at 1.0 mg/ml (5.46 Mm Cadmium), and dilutions from this solution were made in media to obtain the desired drug treatment concentrations of 1 μM, 10 μM, 20 μM, 40 μM, 100 μM, 150 μM and 200 μM. Cisplatin was dissolved in PBS without Ca^++ or Mg^++ at 1.0 mg/ml (3.33 Mm cisplatin), and dilutions from this solution was made in media to obtain the desired drug treatment concentrations of ranging from 1 μM to 300 μM. Drug treatments were for 1 hour.
(§2) After drug treatments, cells were washed twice with PBS without Ca^++ or Mg^++, treated with fresh drug-free media, and incubated for 5 days. On day 5 after drug treatment, 50 microliter of 3-(4,5-dimethylthiazol-2-yl)-2,5 diphenyltetrazolium bromide (MTT) (400 mg in 200 ml of PBS) were added to each well and incubated for 4 hours at 37° C. Analysis of optical density readings were performed using the VV Deltasoft program on a Macintosh computer (Apple, Inc., Palo Alto, Calif.) and percentage cell growth values were obtained.

[2] = system: A2780/CP70 cells; type: cell-based, human; conditions: for IC50: read-out: 50% cell kill (IC50)
Protocol: as §1, §2

[3] = system: A2780 cells; assay: cellular Cd accumulation after 1 hour exposure to a range of Cd doses (AAS), A2780; type: cell-based, human
Protocol: We examined the cellular Cd accumulation following 1 hour exposures to a range of Cd doses. Cells were grown in T-150 flasks (Costar, Cambridge, Mass.) to 60-80% confluence and then exposed to 10 μM, 50 μM, 100 μM and 200 μM Cd for 1 hour. Cells were harvested, immediately counted and then “wet-ashed” [20]. Total cellular Cd accumulation was measured by atomic absorption spectrometry with Zeeman background correction (AAS), and assessed as nanograms of Cd per million cells (ng Cd/10^6 cells)

[4] = system: A2780 cells; assay: cellular drug accumulation and efflux at IC50 dose (AAS), A2780; type: cell-based, human; conditions: for ASSOCIATED DRUG / PERCENT REMOVED (efflux) / PERCENT ACCUMULATION / DRUG UPTAKE: A2780; for PERCENT ACCUMULATION: IC50 dose; for DRUG UPTAKE: IC50 dose 58 μM
Protocol: (§3) Cells were harvested at time points of 15, 30, 45, and 60 minutes during 1 hour drug exposures, and at 1 and 3 hours after drug exposure. Cells were immediately counted and then wet-ashed. Total cellular drug. accumulation was measured by AAS, and assessed as both nanograms of Cd per million cells (ng Cd/10^6 cells) and as the percentage of the highest levels of total cellular drug.

[5] = system: A2780/CP70 cells; assay: cellular drug accumulation and efflux at IC50 dose (AAS), A2780/CP70; type: cell-based, human; conditions: for PERCENT ACCUMULATION: IC50 dose; for DRUG UPTAKE: IC50 dose 128 μM
Protocol: as §3

[6] = system: cellular DNA of A2780/CP70 cells; assay: Cd-DNA adduct formation after 1 hour exposure to a range of Cd doses (AAS), A2780/CP70; type: cell-based, human
Protocol: We examined the formation of Cd-DNA adduct in cellular DNA following 1 hour exposures to a range of Cd drug doses. Cells were grown in T-150 flasks (Costar, Cambridge, Mass.) to 60-80% confluence and then exposed to 0 μM (control), 10 μM, 50 μM, 100 μM and 200 μM Cd for 1 hour. Following a 1 hour drug exposure, cells were washed twice with cold PBS, harvested, and frozen immediately at −20° C. until DNA isolation. Total cellular DNA was isolated on cesium chloride density gradients. DNA was dialyzed against Dh2O with 3-4 changes over 36-48 hours, and quantitated by absorbance at 260 nm. Total Cd per unit DNA was measured by AAS.

[7] = system: cellular DNA of A2780 cells; assay: Cd-DNA adduct formation and repair after IC50 exposure (AAS), A2780; type: cell-based, human
Protocol: (§4) We examined the formation and removal of Cd-DNA adduct in cellular DNA following 1 hour drug exposures. […] An aliquot of cells was harvested before drug treatment (time zero). Following a 1 hour drug exposure, cells were washed and harvested at. the following time points: 0 hour (immediately at the end of Cd exposure), 1 hour, 6 hour, and 24 hours. Cells were frozen immediately at −20° C. until DNA isolation. Total cellular DNA was isolated and assayed as described above, and total Cd per unit DNA was measured by AAS.

[8] = system: cellular DNA of A2780/CP70 cells; assay: Cd-DNA adduct formation and repair after IC50 exposure (AAS), A2780/CP70; type: cell-based, human
Protocol: as §4

[9] = system: liver and lung tumors in B6C3F1 mice; conditions: single dose of NDEA followed by cadmium chloride in the drinking water; cited from earlier work
[10] = A2780 cells, 1 hour exposure, MTT
[11] = A2780/CP70 cells, 1 hour exposure, MTT
[12] = 0 hours after 1 hour IC50 exposure
[13] = 1 hour after 1 hour IC50 exposure
[14] = 3 hours after 1 hour IC50 exposure
[15] = 3 hours after 1 hour IC50 exposure, listed as Cadmium

SMILES: [Cl][Cd][Cl] [Cd, Cadmium dichloride]
- 10% cell kill [1, 10]: 0.45 µM
- 90% cell kill [1, 10]: 130 µM
- IC50 [1, 10]: 58 µM
- 10% cell kill [2, 11]: 28 µM
- 90% cell kill [2, 11]: 195 µM
- IC50 [2, 11]: 128 µM
- level of cross-resistance of A2780/CP70 cells to Cd ([2]; compared with 10-fold resistance to cisplatin): approximately equal level
- A2780/CP70 cells more sensitive to Cd (than to cisplatin) ([2]; on a μM basis, 50% cell kill): 1.25 fold
- slope of linear regression, cellular Cd versus Cd dose ([3]; A2780 cells, 1 hour exposure, up to 200 μM): 0.024
- more cellular drug accumulated per unit dose, A2780 versus A2780/CP70 ([3]; from slopes of linear regression): 4.9 fold
- ASSOCIATED DRUG [4, 12]: 20.85 ± 4.4 ng Cd/10^6 Cells
- PERCENT REMOVED (efflux) ([4]; 0 hours after exposure): 90%
- PERCENT ACCUMULATION ([4]; 15 minutes): 33%
- DRUG UPTAKE ([4]; 15 minutes): 6.89 ± 0.53 ng Cd/10^6
- PERCENT ACCUMULATION ([4]; 30 minutes): 47%
- DRUG UPTAKE ([4]; 30 minutes): 9.83 ± 1.06 ng Cd/10^6
- PERCENT ACCUMULATION ([4]; 45 minutes): 60%
- DRUG UPTAKE ([4]; 45 minutes): 12.47 ± 1.95 ng Cd/10^6
- ASSOCIATED DRUG [4, 13]: 12.74 ± 3.74 ng Cd/10^6 Cells
- PERCENT REMOVED (efflux) ([4]; 1 hour after exposure): 30%
- PERCENT ACCUMULATION ([4]; 60 minutes): 100%
- DRUG UPTAKE ([4]; 60 minutes): 20.85±4.49 ng Cd/10^6
- DRUG UPTAKE ([4]; 60 minutes, listed as Cadmium): 20.85 ± 4.49 ng Cd/10^6
- ASSOCIATED DRUG [4, 14]: 6.56±0.58 ng Cd/10^6 Cells
- ASSOCIATED DRUG [4, 15]: 6.56 ± 0.58 ng Cd/10^6 Cells
- PERCENT REMOVED (efflux) ([4]; 3 hours after exposure): 69%
- greater rate of Cd accumulation, A2780 versus A2780/CP70 ([4]; from slopes, respective IC50 doses): 2.8 fold
- ASSOCIATED DRUG [5, 12]: 6.61 ± 1.4 ng Cd/10^6 Cells
- PERCENT REMOVED (efflux) ([5]; 0 hours after exposure): 80%
- PERCENT ACCUMULATION ([5]; 15 minutes): 10%
- DRUG UPTAKE ([5]; 15 minutes): 0.65 ± 0.16 ng Cd/10^6
- PERCENT ACCUMULATION ([5]; 30 minutes): 46%
- DRUG UPTAKE ([5]; 30 minutes): 3.03 ± 1.11 ng Cd/10^6
- PERCENT ACCUMULATION ([5]; 45 minutes): 66%
- DRUG UPTAKE ([5]; 45 minutes): 4.33 ± 2.02 ng Cd/10^6
- ASSOCIATED DRUG [5, 13]: 4.08 ± 1.4 ng Cd/10^6 Cells
- PERCENT REMOVED (efflux) ([5]; 1 hour after exposure): 38%
- PERCENT ACCUMULATION ([5]; 60 minutes): 100%
- DRUG UPTAKE ([5]; 60 minutes): 6.61±1.48 ng Cd/10^6
- DRUG UPTAKE ([5]; 60 minutes, listed as Cadmium): 6.61 ± 1.48 ng Cd/10^6
- ASSOCIATED DRUG [5, 14]: 2.08±0.92 ng Cd/10^6 Cells
- ASSOCIATED DRUG [5, 15]: 2.08 ± 0.92 ng Cd/10^6 Cells
- PERCENT REMOVED (efflux) ([5]; 3 hours after exposure): 69%
- more DNA damage required in resistant A2780/CP70 cells to induce an equivalent level of cell kill ([6]; FIG. 5B, A2780/CP70 versus A2780): 5-10 lesions per million DNA bases
- more Cd needed in A2780/CP70 to attain the same level of Cd-DNA damage as in A2780 ([6]; from slopes of the equations): 1.7 fold
- Cd-DNA ADDUCT ([7]; 0 hours after 1 hour IC50 (58 μM) exposure): 8.45 ± 3.59 pg Cd/μg DNA
- % REPAIR (amount of peak adduct removed) ([7]; 0 hours after IC50 exposure): 0%
- Cd-DNA ADDUCT ([7]; 1 hour after 1 hour IC50 (58 μM) exposure, peak): 11.81±6.59 pg Cd/μg DNA
- Cd-DNA ADDUCT ([7]; 1 hour after 1 hour IC50 (58 μM) exposure, peak, listed as Cadmium): 11.81 ± 6.59 pg Cd/μg DNA
- % REPAIR (amount of peak adduct removed) ([7]; 1 hour after IC50 exposure): no removal
- % REPAIR (amount of peak adduct removed) ([7]; 1 hour after IC50 exposure, listed as Cadmium): 0%
- Cd-DNA ADDUCT ([7]; 6 hours after 1 hour IC50 (58 μM) exposure): 7.08±3.92 pg Cd/μg DNA
- Cd-DNA ADDUCT ([7]; 6 hours after 1 hour IC50 (58 μM) exposure, listed as Cadmium): 7.08 ± 3.92 pg Cd/μg DNA
- % REPAIR (amount of peak adduct removed) ([7]; 6 hours after IC50 exposure): 40%
- Cd-DNA ADDUCT ([7]; 24 hours after 1 hour IC50 (58 μM) exposure): 5.28±3.11 pg Cd/μg DNA
- Cd-DNA ADDUCT ([7]; 24 hours after 1 hour IC50 (58 μM) exposure, listed as Cadmium): 5.28 ± 3.11 pg Cd/μg DNA
- % REPAIR (amount of peak adduct removed) ([7]; 24 hours after IC50 exposure): 55%
- Cd-DNA ADDUCT ([8]; 0 hours after 1 hour IC50 (128 μM) exposure, peak): 15.58±3.56 pg Cd/μg DNA
- Cd-DNA ADDUCT ([8]; 0 hours after 1 hour IC50 (128 μM) exposure, peak, listed as Cadmium): 15.58 ± 3.56 pg Cd/μg DNA
- % REPAIR (amount of peak adduct removed) ([8]; 0 hours after IC50 exposure): 0%
- Cd-DNA ADDUCT ([8]; 1 hour after 1 hour IC50 (128 μM) exposure): 13.31 ± 4.62 pg Cd/μg DNA
- % REPAIR (amount of peak adduct removed) ([8]; 1 hour after IC50 exposure): 15%
- Cd-DNA ADDUCT ([8]; 6 hours after 1 hour IC50 (128 μM) exposure): 12.05±3.98 pg Cd/μg DNA
- Cd-DNA ADDUCT ([8]; 6 hours after 1 hour IC50 (128 μM) exposure, listed as Cadmium): 12.05 ± 3.98 pg Cd/μg DNA
- % REPAIR (amount of peak adduct removed) ([8]; 6 hours after IC50 exposure): 23%
- Cd-DNA ADDUCT ([8]; 24 hours after 1 hour IC50 (128 μM) exposure): 8.47±2.85 pg Cd/μg DNA
- Cd-DNA ADDUCT ([8]; 24 hours after 1 hour IC50 (128 μM) exposure, listed as Cadmium): 8.47 ± 2.85 pg Cd/μg DNA
- % REPAIR (amount of peak adduct removed) ([8]; 24 hours after IC50 exposure): 46%
- incidence and multiplicity of NDEA-induced lung tumors [9]: reduced
- spontaneously-occurring liver tumors [9]: eliminated

SMILES: N.N.[Cl][Pt][Cl] [cisplatin, reference compound]
- IC50 [1, 10]: 16 µM
- A2780 cells more sensitive to cisplatin than to Cd ([1]; on a μM basis, 50% cell kill): 3.6 fold
- IC50 [2, 11]: 160 µM
- increase in resistance of A2780/CP70 cells as compared to A2780 cells ([2]; drug exposures associated with 50% cell kill): 10 fold
